Results reported in patent publication US11173160B2 (UNIVERSITY OF PITTSBURGH—OF THE COMMONWEALTH SYSTEM OF …, priority 2019, dated 2021).

Experiments:
[1] = tested on: DIPG-13p orthotopic xenografts; assay: DIPG-13p orthotopic xenograft model; format: in vivo, mice; settings: for survival vs vehicle: 20 mg/kg/day for 5 days, 2 days rest
Description: All animal procedures were carried out ethically according to animal user protocols approved by Institutional Animal Care Committee (IACUC). 4-6 week-old non-obese diabetic severe combined immune deficiency male or female mice (NOD-SCID-Prkdc^scid) were injected with 1×10^5 SU-DIPG-13p cells or 1×10^5 SF8628 DIPG cells. Cells were re-suspended in 2 μl of PBS and injected into the pons/midbrain using a stereotactic frame (Stoelting) and automated cell injector (Stoelting) with cells delivered over 4 minutes. Coordinates were as follows from the Lambda suture (x=0.8 mm, y=−0.8 mm, z=−5.0 mm). […] Mice were treated for two cycles (5 days on, with two days off per cycle). Mice were sacrificed at sign of neurological duress and brains were extracted and fixed in 4% PFA.
Also, the present disclosure used two established cell lines derived from transgenic mouse models of DIPG. Both lines are p53 null and express PDGFB, differing only in their H3.3 mutation status.
In a second DIPG mouse model, mice were injected with 1×10^5 DIPG13p cells in the midbrain of NOD-SCID gamma mice.
For each cycle, the compounds were administered 20 mg/kg/day for 5 days, followed with 2 days of rest period. Each mice received 2 cycles of treatment.

[2] = target: TYRO3 (Homo sapiens, UniProt Q06418); settings: Source Invitrogen; 10-point titration in duplicates, done once; cited from earlier work
[3] = target: CDK6 (Homo sapiens, UniProt Q00534); settings: cited from earlier work
[4] = target: PAK2 (Homo sapiens, UniProt Q13177); settings: cited from earlier work
[5] = tested on: ERK5 auto-phosphorylation and cleaved PARP in tumor; assay: western blot of tumor lysates from treated mice; format: in vivo; settings: mice sacrificed after 5 days of treatment with TG02
Description: Total ERK5 was used as a loading control.
All animal procedures were carried out ethically according to animal user protocols approved by Institutional Animal Care Committee (IACUC). 4-6 week-old non-obese diabetic severe combined immune deficiency male or female mice (NOD-SCID-Prkdc^scid) were injected with 1×10^5 SU-DIPG-13p cells or 1×10^5 SF8628 DIPG cells. Cells were re-suspended in 2 μl of PBS and injected into the pons/midbrain using a stereotactic frame (Stoelting) and automated cell injector (Stoelting) with cells delivered over 4 minutes. Coordinates were as follows from the Lambda suture (x=0.8 mm, y=−0.8 mm, z=−5.0 mm). […]

[6] = cited from earlier work
[7] = tested on: tumor cells (DIPG); assay: cell viability with TG02 and radiation (cell count/trypan blue); format: cell-based; settings: day 5
Description: Cells were plated on day 1 (1×10^6). […] On day 5, cell viability were measured by cell count/trypan blue assay on thermo cell countess machines. For fractionated rad, additional 1.8 Gy doses were given on days 3 and 4. […] Therefore, the combination of TG02 and radiation can provide significant, synergistic benefits for treating DIPG as compared to when TG02 and radiation are administered alone.

[8] = tissue and plasma distribution after a single PO dose; format: in vivo, female nude mice
Description: Three mice were sacrificed at a time 10 min, 30 min, 1, 2, 4, 8, and 24 hrs after dosing and pharmacokinetic levels were assessed.

[9] = target: DYRKIB (Homo sapiens, UniProt Q9Y463); settings: cited from earlier work
[10] = target: PLK1 (Homo sapiens, UniProt P53350); settings: cited from earlier work
[11] = target: IGF-1R (Homo sapiens, UniProt P08069); settings: cited from earlier work
[12] = target: c-Raf (Homo sapiens, UniProt P04049); settings: cited from earlier work
[13] = tested on: DIPG-IV cells expressing MYC S62D; assay: EC50 of TG02 in DIPG-IV cells expressing MYC S62D; format: cell-based, human; settings: MYC S62D vs empty vector control
Description: Direct cell counts were performed using the Countess II FL Automated Cell Counter (ThermoFisher Scientific). Alamar blue viability (ThermoFisher Scientific) and the 5-bromo-2′-deoxyuridine (BrdU) incorporated cell proliferation assay (Cell Signaling Technology Cat #6813) were performed using the manufacturer's standard protocol. EC50 curve analysis was performed using raw fluorescent Alamar blue values that were inputted into PRISM 7.0. Drug concentrations were log 10 transformed and values normalized to percent viability with respect to vehicle treated cells. EC50 values were interpolated from a log inhibitor vs. normalized response with variable slope using a least square fit model.

[14] = target: InsR (Homo sapiens, UniProt P06213); settings: cited from earlier work
[15] = target: Aurora B (Homo sapiens, UniProt Q96GD4); settings: cited from earlier work
[16] = target: TLK2 (Homo sapiens, UniProt Q86UE8); settings: cited from earlier work
[17] = target: KDR (Homo sapiens, UniProt P35968); settings: cited from earlier work
[18] = target: PKA (Homo sapiens, UniProt P17612); settings: cited from earlier work
[19] = target: CYP1A2 (Homo sapiens, UniProt P05177); settings: cited from earlier work
[20] = target: JAK3 (Homo sapiens, UniProt P52333); settings: cited from earlier work
[21] = target: ALK (Homo sapiens, UniProt Q9UM73); settings: cited from earlier work
[22] = cited from earlier work; remark: listed apart in the source
[23] = tested on: ERK5 phosphorylation in DIPG-007 and DIPG-IV cells; assay: Western blot of ERK5 phosphorylation in DIPG cells; format: cell-based, human; settings: 50 nM
Description: Cell pellets were lysed in PLC lysis buffer containing protease and phosphatase inhibitors (Roche Inc.). Protein lysates were quantified using the bicinchoninic acid (BCA) assay (Pierce Chemical Co., Rockford, Ill.). 30 μg of total protein lysate was loaded in 10% SDS-PAGE gels and electrophoresed. Proteins were transferred to PVDF membranes using a semi-dry transfer apparatus (Bio-Rad). Membranes were blocked for one hour and probed for various proteins overnight in 5% non-fat milk or 5% BSA in Tris Buffered Saline Solution, 0.5% Tween-20 (TBST) or Phosphate Buffered Saline Solution with 0.5% Tween-20 (PBST). Membranes were washed for 5 mins in TBST (3×) and incubated with horseradish peroxidase-conjugated antibodies specific for the primary antibody (BioRad Laboratories, Inc., CA, USA). Binding was detected using Chemiluminescence Reagent Plus (PerkinElmer Inc., MA, USA).

DYRKIB, sequence (Q9Y463 whole entry): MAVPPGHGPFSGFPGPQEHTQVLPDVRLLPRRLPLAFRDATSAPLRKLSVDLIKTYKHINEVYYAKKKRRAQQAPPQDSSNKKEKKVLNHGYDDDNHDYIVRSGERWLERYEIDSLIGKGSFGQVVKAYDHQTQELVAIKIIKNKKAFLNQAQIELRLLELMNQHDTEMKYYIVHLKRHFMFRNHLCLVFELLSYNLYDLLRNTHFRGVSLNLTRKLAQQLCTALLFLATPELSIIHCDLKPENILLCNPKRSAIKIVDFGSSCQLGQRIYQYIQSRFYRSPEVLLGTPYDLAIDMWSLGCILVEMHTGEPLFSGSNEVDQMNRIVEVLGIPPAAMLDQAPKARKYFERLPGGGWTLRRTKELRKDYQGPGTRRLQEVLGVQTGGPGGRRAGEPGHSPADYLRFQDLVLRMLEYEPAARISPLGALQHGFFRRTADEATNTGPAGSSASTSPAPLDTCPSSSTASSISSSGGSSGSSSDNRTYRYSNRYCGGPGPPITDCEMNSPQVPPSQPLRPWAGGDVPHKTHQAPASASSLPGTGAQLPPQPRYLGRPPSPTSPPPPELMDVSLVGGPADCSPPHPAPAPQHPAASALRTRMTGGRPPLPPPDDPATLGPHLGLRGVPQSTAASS
InsR, sequence (P06213 28-1382): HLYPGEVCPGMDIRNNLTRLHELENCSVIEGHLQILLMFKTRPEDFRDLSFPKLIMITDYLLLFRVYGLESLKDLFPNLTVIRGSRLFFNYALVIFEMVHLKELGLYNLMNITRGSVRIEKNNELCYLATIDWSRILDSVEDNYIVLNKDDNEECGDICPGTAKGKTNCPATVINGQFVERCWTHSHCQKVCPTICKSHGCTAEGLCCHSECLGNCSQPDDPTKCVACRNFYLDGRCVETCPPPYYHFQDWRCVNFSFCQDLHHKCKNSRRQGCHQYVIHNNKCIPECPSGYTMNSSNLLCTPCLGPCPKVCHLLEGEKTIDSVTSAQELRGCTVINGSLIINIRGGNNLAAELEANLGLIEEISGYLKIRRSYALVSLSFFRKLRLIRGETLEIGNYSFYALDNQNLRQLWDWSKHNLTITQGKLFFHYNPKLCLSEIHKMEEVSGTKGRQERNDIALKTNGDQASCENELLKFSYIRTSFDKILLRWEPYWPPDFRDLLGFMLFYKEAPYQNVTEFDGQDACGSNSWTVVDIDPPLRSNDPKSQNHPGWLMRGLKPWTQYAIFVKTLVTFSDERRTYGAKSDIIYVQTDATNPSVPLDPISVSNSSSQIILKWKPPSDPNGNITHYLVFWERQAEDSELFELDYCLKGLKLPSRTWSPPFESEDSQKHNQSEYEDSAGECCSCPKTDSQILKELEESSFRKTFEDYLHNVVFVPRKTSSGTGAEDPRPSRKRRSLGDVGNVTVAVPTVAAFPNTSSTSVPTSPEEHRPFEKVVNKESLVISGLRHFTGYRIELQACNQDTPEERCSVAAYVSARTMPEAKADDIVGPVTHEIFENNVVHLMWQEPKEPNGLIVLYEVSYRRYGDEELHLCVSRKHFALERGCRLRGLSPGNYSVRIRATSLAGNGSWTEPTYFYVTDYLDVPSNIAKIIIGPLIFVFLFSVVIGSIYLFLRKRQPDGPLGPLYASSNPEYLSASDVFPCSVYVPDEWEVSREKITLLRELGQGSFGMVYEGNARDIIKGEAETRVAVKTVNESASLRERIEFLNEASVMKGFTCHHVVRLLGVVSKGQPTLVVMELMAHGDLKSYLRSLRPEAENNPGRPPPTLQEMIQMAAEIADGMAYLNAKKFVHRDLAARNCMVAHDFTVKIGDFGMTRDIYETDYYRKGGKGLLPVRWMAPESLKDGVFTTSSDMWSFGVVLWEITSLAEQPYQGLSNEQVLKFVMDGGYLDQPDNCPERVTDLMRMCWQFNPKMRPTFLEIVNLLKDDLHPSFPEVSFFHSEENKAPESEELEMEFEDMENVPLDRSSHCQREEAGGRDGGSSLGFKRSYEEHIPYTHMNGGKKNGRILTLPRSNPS
ALK, sequence (Q9UM73 19-1620): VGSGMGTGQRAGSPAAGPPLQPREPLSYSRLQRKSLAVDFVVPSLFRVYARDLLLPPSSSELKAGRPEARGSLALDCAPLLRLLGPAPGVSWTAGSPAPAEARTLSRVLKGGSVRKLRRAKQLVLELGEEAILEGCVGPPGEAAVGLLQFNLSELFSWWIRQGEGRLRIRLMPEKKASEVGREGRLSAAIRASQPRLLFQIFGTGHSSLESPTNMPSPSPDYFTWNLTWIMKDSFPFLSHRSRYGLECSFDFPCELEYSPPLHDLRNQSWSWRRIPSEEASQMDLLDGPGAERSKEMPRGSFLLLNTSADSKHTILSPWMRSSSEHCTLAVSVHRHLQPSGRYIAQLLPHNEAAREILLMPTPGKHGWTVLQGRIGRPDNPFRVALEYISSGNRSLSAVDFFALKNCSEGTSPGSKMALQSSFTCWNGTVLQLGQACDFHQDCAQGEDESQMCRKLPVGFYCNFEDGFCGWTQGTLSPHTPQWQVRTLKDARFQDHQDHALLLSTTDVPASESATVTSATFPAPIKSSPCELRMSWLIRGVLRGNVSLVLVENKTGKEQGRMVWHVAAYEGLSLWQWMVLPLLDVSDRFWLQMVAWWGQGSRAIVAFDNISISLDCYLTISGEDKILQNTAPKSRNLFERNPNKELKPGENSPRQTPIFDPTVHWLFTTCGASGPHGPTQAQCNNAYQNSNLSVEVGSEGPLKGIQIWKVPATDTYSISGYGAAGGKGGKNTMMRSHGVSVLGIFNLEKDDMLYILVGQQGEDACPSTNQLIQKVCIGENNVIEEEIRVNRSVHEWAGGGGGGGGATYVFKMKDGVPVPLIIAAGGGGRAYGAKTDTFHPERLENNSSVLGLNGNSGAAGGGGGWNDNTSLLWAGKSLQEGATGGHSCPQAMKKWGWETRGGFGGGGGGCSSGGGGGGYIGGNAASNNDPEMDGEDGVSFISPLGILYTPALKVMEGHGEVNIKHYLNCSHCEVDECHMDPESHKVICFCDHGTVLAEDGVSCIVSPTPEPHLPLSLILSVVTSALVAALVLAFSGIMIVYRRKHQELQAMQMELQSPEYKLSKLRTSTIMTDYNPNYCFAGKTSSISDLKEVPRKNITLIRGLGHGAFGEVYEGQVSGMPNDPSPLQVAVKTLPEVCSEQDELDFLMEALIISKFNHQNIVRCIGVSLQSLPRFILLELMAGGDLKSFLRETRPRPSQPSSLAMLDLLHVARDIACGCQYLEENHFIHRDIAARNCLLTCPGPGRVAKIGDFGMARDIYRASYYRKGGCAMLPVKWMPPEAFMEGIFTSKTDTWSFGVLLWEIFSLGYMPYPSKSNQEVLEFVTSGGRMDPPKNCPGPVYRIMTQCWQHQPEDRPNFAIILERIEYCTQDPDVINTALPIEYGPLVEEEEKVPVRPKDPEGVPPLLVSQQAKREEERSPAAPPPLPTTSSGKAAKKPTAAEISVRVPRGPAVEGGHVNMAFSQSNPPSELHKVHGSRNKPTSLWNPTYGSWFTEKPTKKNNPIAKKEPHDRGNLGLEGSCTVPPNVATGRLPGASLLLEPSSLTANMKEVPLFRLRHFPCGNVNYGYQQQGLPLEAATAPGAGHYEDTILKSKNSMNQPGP
PAK2, sequence (Q13177 whole entry): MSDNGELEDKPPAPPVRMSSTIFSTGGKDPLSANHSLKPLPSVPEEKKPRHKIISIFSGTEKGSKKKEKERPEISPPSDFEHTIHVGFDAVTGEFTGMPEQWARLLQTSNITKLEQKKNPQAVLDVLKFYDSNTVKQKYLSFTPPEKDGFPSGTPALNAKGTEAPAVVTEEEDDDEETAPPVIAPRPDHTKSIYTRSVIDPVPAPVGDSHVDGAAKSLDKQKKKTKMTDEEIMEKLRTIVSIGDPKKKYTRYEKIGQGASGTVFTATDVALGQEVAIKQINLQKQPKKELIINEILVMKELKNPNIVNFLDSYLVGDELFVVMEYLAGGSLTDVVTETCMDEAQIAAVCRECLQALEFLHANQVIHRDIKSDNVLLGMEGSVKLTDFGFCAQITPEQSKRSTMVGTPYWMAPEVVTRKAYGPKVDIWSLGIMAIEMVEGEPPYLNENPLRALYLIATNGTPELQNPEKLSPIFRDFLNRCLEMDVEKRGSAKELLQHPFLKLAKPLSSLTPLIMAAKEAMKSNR
c-Raf, sequence (P04049 whole entry): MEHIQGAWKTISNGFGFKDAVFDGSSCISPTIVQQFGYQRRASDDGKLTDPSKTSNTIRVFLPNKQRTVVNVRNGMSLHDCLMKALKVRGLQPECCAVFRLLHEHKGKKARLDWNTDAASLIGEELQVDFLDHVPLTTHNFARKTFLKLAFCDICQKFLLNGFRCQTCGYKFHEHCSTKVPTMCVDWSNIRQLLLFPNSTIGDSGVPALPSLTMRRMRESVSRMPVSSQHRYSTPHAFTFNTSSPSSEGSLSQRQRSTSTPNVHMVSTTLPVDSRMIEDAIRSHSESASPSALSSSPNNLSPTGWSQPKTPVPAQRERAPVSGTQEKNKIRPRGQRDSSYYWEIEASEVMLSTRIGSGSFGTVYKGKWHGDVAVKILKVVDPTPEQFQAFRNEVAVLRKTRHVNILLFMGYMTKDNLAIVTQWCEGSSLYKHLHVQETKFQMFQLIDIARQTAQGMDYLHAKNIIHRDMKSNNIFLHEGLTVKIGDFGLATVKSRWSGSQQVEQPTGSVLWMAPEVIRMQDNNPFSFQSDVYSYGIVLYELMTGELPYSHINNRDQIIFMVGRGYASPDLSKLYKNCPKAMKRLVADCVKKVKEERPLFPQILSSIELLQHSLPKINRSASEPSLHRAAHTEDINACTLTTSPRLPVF
Aurora B, sequence (Q96GD4 whole entry): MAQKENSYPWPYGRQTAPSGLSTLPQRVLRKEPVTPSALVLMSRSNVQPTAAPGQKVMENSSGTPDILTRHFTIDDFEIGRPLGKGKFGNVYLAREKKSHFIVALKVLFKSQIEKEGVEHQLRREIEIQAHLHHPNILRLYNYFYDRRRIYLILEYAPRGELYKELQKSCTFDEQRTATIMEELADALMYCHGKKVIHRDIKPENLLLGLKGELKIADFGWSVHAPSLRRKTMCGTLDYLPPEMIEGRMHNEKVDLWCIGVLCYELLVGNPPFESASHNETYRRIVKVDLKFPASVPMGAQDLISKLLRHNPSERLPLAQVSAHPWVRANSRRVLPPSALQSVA

CN1C/C=C/CCOc2cccc(c2)-c2ccnc(n2)Nc2cccc(c2)C1 [TG02, (16E)-14-methyl-20-oxa-5,7,14,27-tetraazatetracyclo[19.3.1.12,6.18,12]heptacosa-1(25),2(27),3,5,8(26),9,11,16,21,23-decaene]
K167 expression (proliferation marker) ([1]; 20 mg/kg, 2 cycles, vs vehicle): significantly reduced K167 expression | survival vs vehicle ([1]; 2 cycles): statistically significant increased median survival | survival vs vehicle ([1]; 2 cycles, listed as TG02 obtained from Adastra Pharmaceuticals): extended survival | median survival ([1]; TG02 20 mg/kg, 2 cycles of 5 days on 2 days off, vehicle 22.5 days): 40 days | IC50 [2]: 36 nM | inhibition at 100 nm [3]: less than 50% | inhibition at 100 nm [4]: less than 50% | in vivo ERK5 auto-phosphorylation [5]: inhibition of ERK5 auto-phosphorylation | in vivo apoptosis by cleaved PARP [5]: induction of apoptosis | most common toxicities (≥20%) ([6]; adults with acute leukemia): nausea, vomiting, fatigue, abdominal pain, diarrhea, constipation, and hypophosphatemia | serious adverse events ([6]; adults with hematologic malignancies): nausea and vomiting (grades 2 and 3), fatigue (grade 3), altered mental status (grade 2), rash (grade 3), thrombocytopenia (grade 4), and neutropenic fever with sepsis (grade 3) | maximum tolerated dose (MTD) ([6]; intermittent TG02 with fixed doses of carfilzomib, twice a week for 21 of 28 days): 250 mg per dose | tumor cell viability, TG02 alone ([7]; vehicle control about 100%): 50% | tumor cell viability, TG02 and radiation ([7]; radiation 3 fractions of 1.8 Gy): about 25% | blood-brain barrier penetration ([8]; mouse, in vivo): blood-brain barrier penetrant | Cmax in the brain compared to plasma ([8]; single PO dose of 75 mg/kg): at least twice as high | exposure (AUC0-last) in the brain compared to plasma ([8]; single PO dose of 75 mg/kg): at least twice as high | inhibition at 100 nm [9]: less than 50% | inhibition at 100 nm [10]: less than 50% | inhibition at 100 nm [11]: less than 50% | inhibition at 100 nm [12]: less than 50% | resistance to TG02 [13]: promoted resistance to TG02 | inhibition at 100 nm [14]: less than 50% | inhibition at 100 nm [15]: less than 50% | inhibition at 100 nm [16]: less than 50% | inhibition at 100 nm [17]: less than 50% | inhibition at 100 nm [18]: less than 50% | substrate of CYP1A2 [19]: substrate | inhibition at 100 nm [20]: less than 50% | inhibition at 100 nm [21]: less than 50% | peak concentration in plasma ([22]; adults, single dose of 200 mg): 4,000 ng/mL | Cmax and AUC0-t dose dependence ([22]; doses between 10 and 200 mg): dose-proportional increase | t1/2 ([22]; in vivo): approximately 18 hrs | ERK5 Thr218/Tyr220 phosphorylation (regulated by MEK5) [23]: did not inhibit | ERK5 auto-phosphorylation and ERK5 activity sites (Ser731 and Thr733) [23]: confirmed to inhibit
